The values below come from patent US8703805B2 (Exelixis Patent Company LLC, priority 2005, dated 2014).

Broadly, the pEC50 is −log10 of the EC50, conventionally taken in molar units.

The test deals with LXRα and/or LXRβ. Kind of test: LXR/LXRE co-transfection assay (luciferase reporter, CV-1 cells). It counts as cell-based, human. Particulars: IC50 or EC50 for LXR (LXRα and/or LXRβ, not distinguished), tested as described in Example 109, CV-1 cells. The gist of the method: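 Transient co-transfection of CV-1 cells with full-length human LXRα or LXRβ plus RXRα expression plasmids and an LXREx1-Tk-luciferase reporter; compounds (10 μM screen, ≤1% DMSO) incubated 20 h at 37 °C. Luminescence read after lysis; EC50/IC50 from 8-point half-log curves, efficacy relative to a high control or DMSO.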
Background: In a reporter assay the amount or activity of a reporter protein is the signal.

SMILES strings stand for the structures. pEC50: −log10 of the molar value.

As to `CC(C)(O)c1nn(-c2ccccc2Cl)c(-c2ccc(-c3cccc(S(C)(=O)=O)c3)s2)c1F` [Example 1319, 2-[1-(2-chlorophenyl)-4-fluoro-5-{5-[3-(methylsulfonyl)phenyl]-2-thienyl}-1H-pyrazol-3-yl]propan-2-ol], the pEC50 is > 6.00.

For the compound `CC(C)(O)c1cc(-c2ccc(-c3cccc(S(C)(=O)=O)c3)s2)n(-c2ccccc2Br)n1` [Example 1320, 2-[1-(2-bromophenyl)-5-{5-[3-(methylsulfonyl)phenyl]-2-thienyl}-1H-pyrazol-3-yl]propan-2-ol], the pEC50 is > 6.00.

Consider `CC(C)(O)c1cc(-c2ccc(-c3cccc(S(C)(=O)=O)c3)s2)n(-c2cc(F)ccc2F)n1` [Example 1322, 2-[1-(2,5-difluorophenyl)-5-{5-[3-(methylsulfonyl)phenyl]-2-thienyl}-1H-pyrazol-3-yl]propan-2-ol], for which the pEC50 was 5.00 to 6.00.

In turn, `CC(C)(O)c1cc(-c2ccc(-c3cccc(S(C)(=O)=O)c3)s2)n(-c2cc(Cl)cc(Cl)c2)n1` [Example 1323, 2-[1-(3,5-dichlorophenyl)-5-{5-[3-(methylsulfonyl)phenyl]-2-thienyl}-1H-pyrazol-3-yl]propan-2-ol] had a pEC50 of 5.00 to 6.00.

Regarding `CC(C)(O)c1cc(-c2ccc(-c3cccc(S(C)(=O)=O)c3)s2)n(-c2ccc(Cl)c(Cl)c2)n1` [Example 1324, 2-[1-(3,4-dichlorophenyl)-5-{5-[3-(methylsulfonyl)phenyl]-2-thienyl}-1H-pyrazol-3-yl]propan-2-ol], the pEC50 is 5.00 to 6.00.

Turning to `Cc1ccc(Cl)c(-n2nc(C(C)(C)O)cc2-c2ccc(-c3cccc(S(C)(=O)=O)c3)s2)c1Cl` [Example 1325, 2-[1-(2,6-dichloro-3-methylphenyl)-5-{5-[3-(methylsulfonyl)phenyl]-2-thienyl}-1H-pyrazol-3-yl]propan-2-ol], the pEC50 was > 6.00.

On to `CC(C)(O)c1cc(-c2ccc(-c3cccc(S(C)(=O)=O)c3)s2)n(-c2cccc(F)c2F)n1` [Example 1326, 2-[1-(2,3-difluorophenyl)-5-{5-[3-(methylsulfonyl)phenyl]-2-thienyl}-1H-pyrazol-3-yl]propan-2-ol], for which the pEC50 was > 6.00.

`CC(C)(O)c1cc(-c2ccc(-c3cccc(S(C)(=O)=O)c3)s2)n(-c2ccccc2OC(F)(F)F)n1` [Example 1327, 2-(5-{5-[3-(methylsulfonyl)phenyl]-2-thienyl}-1-(2-[(trifluoromethyl)oxy]phenyl}-1H-pyrazol-3-yl)propan-2-ol]: the pEC50 is > 6.00.

For the compound `CC(C)(O)c1cc(-c2ccc(-c3cccc(S(C)(=O)=O)c3)s2)n(-c2cccc(Cl)c2F)n1` [Example 1328, 2-[1-(3-chloro-2-fluorophenyl)-5-{5-[3-(methylsulfonyl)phenyl]-2-thienyl}-1H-pyrazol-3-yl]propan-2-ol], the pEC50 was > 6.00.

Regarding `CCc1ccccc1-n1nc(C(C)(C)O)cc1-c1ccc(-c2cccc(S(C)(=O)=O)c2)s1` [Example 1329, 2-[1-(2-ethylphenyl)-5-{5-[3-(methylsulfonyl)phenyl]-2-thienyl}-1H-pyrazol-3-yl]propan-2-ol], the pEC50 was > 6.00.

Consider `CCCc1ccccc1-n1nc(C(C)(C)O)cc1-c1ccc(-c2cccc(S(C)(=O)=O)c2)s1` [Example 1330, 2-[5-{5-[3-(methylsulfonyl)phenyl]-2-thienyl}-1-(2-propylphenyl)-1H-pyrazol-3-yl]propan-2-ol], for which the pEC50 was > 6.00.

Take `Cc1ccc(F)cc1-n1nc(C(C)(C)O)cc1-c1ccc(-c2cccc(S(C)(=O)=O)c2)s1` [Example 1331, 2-[1-(5-fluoro-2-methylphenyl)-5-{5-[3-(methylsulfonyl)phenyl]-2-thienyl}-1H-pyrazol-3-yl]propan-2-ol]: the pEC50 was > 6.00.

`CC(C)c1cccc(-c2ccc(-c3cc(C(C)(C)O)nn3-c3ccccc3Cl)s2)c1` [Example 1332, 2-[1-(2-chlorophenyl)-5-{5-[3-(1-methylethyl)phenyl]-2-thienyl}-1H-pyrazol-3-yl]propan-2-ol] showed a pEC50 of 5.00 to 6.00.
